In this assay the test system is male or female adult patients, exhibiting a major depressive disorder. Put plainly: Eight-week multicentre double-blind clinical studies versus placebo, CSFQ questionnaire (changes in sexual functioning questionnaire). It counts as in vivo, human. To be noted: 100 mg per day orally for eight weeks. The method, then:
The patients received, orally, a dose of 100 mg per day of saredutant for eight weeks, in the form of gel capsules (Example 2). he effects of saredutant compared with the placebo were evaluated using the CSFQ questionnaire (changes in sexual functioning questionnaire) comprising 14 items according to Clayton A H et al., Psychopharmacol. Bull., 1997, 33, 731-745. It is known that antidepressants have a deleterious effect on the sexual activity of patients (Montejo-Gonzales A L et al.: J. Sex Marital Ther., 1997, 23(3), 176-194). […] The table below indicates, for each group treated, the mean variation relative to the base value before treatment of the total CSFQ score and its variability between parentheses obtained over the analysis of all the studies. An increase in the total CSFQ score corresponds to an improvement in sexual function.

The structures appear in SMILES notation.

On to `CC(=O)NC1(c2ccccc2)CCN(CC[C@H](CN(C)C(=O)c2ccccc2)c2ccc(Cl)c(Cl)c2)CC1` [Saredutant, (S)-(−)-N-[4-(4-acetamido-4-phenylpiperidin-1-yl)-2-(3,4-dichlorophenyl)butyl]-N-methylbenzamide], for which the “effect on the dysfunctions reduced sexual desire and sexual arousal disorders” value (versus placebo) was “beneficial effect”. For the same compound, under “p<0.05”, the “improvement in the total CSFQ score between the last visit (56th day) and the first visit, in comparison with the placebo group” value is reported as “significant improvement”. Moreover, for the setting “all patients, n = 553, analysis of all the studies, increase = improvement in sexual function, *p < 0.05 versus placebo (ANCOVA)”, the “Total CSFQ score, mean variation relative to the base value before treatment (variability between parentheses)” value is listed as 2.23 (0.64)*.

Values taken from patent US20100173879A1, “USE OF A COMPOUND ANTAGONIST TO THE NK2 RECEPTORS OF NEUROKININ A FOR THE PREPARATION OF DRUGS USEFUL FOR PREVENTING AND TREATING OF SEXUAL DYSFUNCTION” (SANOFI-AVENTIS, priority 2007, published 2010).
